# PMC9828517 (Angewandte Chemie (International Ed. in English), 2022)
# Biological target: T1, recombinant SIRT5 (His-tagged, Millipore) (Homo sapiens, UniProt Q9NXA8)
# T1 sequence (Q9NXA8 37-310): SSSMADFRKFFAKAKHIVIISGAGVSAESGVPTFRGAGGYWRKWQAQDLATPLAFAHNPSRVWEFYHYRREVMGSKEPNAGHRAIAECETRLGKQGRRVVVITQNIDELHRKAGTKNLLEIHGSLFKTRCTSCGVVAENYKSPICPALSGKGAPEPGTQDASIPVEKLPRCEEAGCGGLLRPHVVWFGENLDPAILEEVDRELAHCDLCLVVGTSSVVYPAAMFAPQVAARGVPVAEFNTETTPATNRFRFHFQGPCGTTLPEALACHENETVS
# Assay: Mass spectrometry determination of covalent labeling
# Assay type: binding
# Details: Tris buffer pH 8, 24 h room temperature (7, 8: 37 °C, 48 h)
row,SMILES,covalent conjugate formation with SIRT5 (MALDI-TOF MS)
1,O=C(NC1CCC1)[C@H](Cc1c[nH]c2ccccc12)NC(=O)[C@H](CCCCNC(=S)Nc1ccc(OS(=O)(=O)F)cc1)NS(=O)(=O)c1cccc(F)c1 [compound 8],not significantly enhanced compared to the amide analogs
2,O=C(NC1CCC1)[C@H](Cc1c[nH]c2ccccc12)NC(=O)[C@H](CCCCNC(=S)Nc1cccc(OS(=O)(=O)F)c1)NS(=O)(=O)c1cccc(F)c1 [compound 7],not significantly enhanced compared to the amide analogs
3,O=C(NCCCC[C@H](NS(=O)(=O)c1cccc(F)c1)C(=O)N[C@@H](Cc1c[nH]c2ccccc12)C(=O)NC1CCC1)c1cccc(S(=O)(=O)F)c1 [compound 2],reacted more readily with SIRT5
